Assay type in all cases: in vivo
Common to all, as to design: key: 5: completely killed; 4: seriously injured; 3: considerably injured; 2: somewhat injured; 1: slightly injured; 0: not injured (normally grown)

Data set [1] concerns hotarui (bulrush, Scirpus juncoides). The experiment in a line: Experiment 4 flooded soil treatment: hotarui. The following applies: 4 weeks after treatment. The source says:
(§1) Paddy soil (clay loam) was put into a pot so as to have a surface area of 1/15500 ares. Uniformly mixed seeds of several kinds of weeds, viz., nobie (barnyardgrass, Echinochloa spp.), broad-leaved weeds, hotarui (bulrush, Scirpus juncoides) and tamagayatsuri (small-flowered umbrellaplant, Cyperus difformis), were sown in the surface layer of the soil in each pot, and then paddy rice seedlings at the two- or three-leaved stage were transplanted into each pot to a depth of 2 cm, and water was fed into each pot so as to provide a 3 cm deep water layer on the soil surface. After 3 days, in other words at the initial stage of germination of nobie (barnyardgrass, Echinochloa spp.), a predetermined amount of a selected compound obtained in a manner analogous to Example 11 in the form of diluted aqueous solution was dropped into the water layer in each pot. After that, the pots were kept in a glass chamber to allow the paddy rice and the weeds to grow, and after the lapse of 4 weeks from the treatment with the selected compounds, the herbicidal effects and the degree of injury to the paddy rice were evaluated. The evaluation of the herbicidal effects was similarly conducted as to that of Experiment 1.

Data set [2] has as its system nobie (barnyardgrass, Echinochloa spp.). The experiment in a line: Experiment 4 flooded soil treatment: nobie. The settings on record: 4 weeks after treatment.
Text: as §1

Data set [3] relates to rice. The experiment in a line: Experiment 5 foliage treatment: rice. The following applies: foliage spray of wettable powder suspension, evaluated 4 weeks after treatment. As for the experimental part:
(§2) Upon seedling stage (two- or three-leaved stage) of rice, cockspur (Panicum crus-galli), garden radish, aobiyu (slender amaranth, Amaranthus viridis) and mehishiba (henry crabgrass, Digitaria cliaris) which were grown on a cultivated soil put in pots of 1/15500 ares, a selected compound obtained in a manner analogous to Example 11, in suspended wettable powder, was sprayed to each plant. After that, the pots were kept in a glass chamber to allow each plant to grow, and after the lapse of 4 weeks from the treatment with the selected compounds the herbicidal effects were evaluated. The evaluation of the herbicidal effects was similarly conducted as that of Experiment 1.

Data set [4] relates to aobiyu (slender amaranth, Amaranthus viridis). The experiment in a line: Experiment 5 foliage treatment: aobiyu. The settings on record: foliage spray of wettable powder suspension, evaluated 4 weeks after treatment. As for the experimental part:
as §2

For data set [5], the system named is garden radish. Nature of the data set: Experiment 5 foliage treatment: garden radish. The settings on record: foliage spray of wettable powder suspension, evaluated 4 weeks after treatment. As for the experimental part:
as §2

The test system of data set [6] is cockspur (Panicum crus-galli). Nature of the data set: Experiment 5 foliage treatment: cockspur. The settings on record: foliage spray of wettable powder suspension, evaluated 4 weeks after treatment. As for the experimental part: as §2
For data set [7], the system named is mehishiba (henry crabgrass, Digitaria cliaris). The experiment in a line: Experiment 5 foliage treatment: mehishiba. The following applies: foliage spray of wettable powder suspension, evaluated 4 weeks after treatment. As for the experimental part: as §2
Data set [8] relates to broad-leaved weeds. Nature of the data set: Experiment 4 flooded soil treatment: broad-leaved weeds. The following applies: 4 weeks after treatment.
Text: as §1

Data set [9] concerns paddy rice. The experiment in a line: Experiment 4 flooded soil treatment: injury to paddy rice. The following applies: 4 weeks after treatment.
Text: as §1

Data set [10] deals with tamagayatsuri (small-flowered umbrellaplant, Cyperus difformis). Nature of the data set: Experiment 4 flooded soil treatment: tamagayatsuri. The settings on record: 4 weeks after treatment.
Text: as §1

Data on 7 molecules can be found in patent publication US6337417B1, “N-phenyltetrahydrophthalamic acid derivatives, methods of producing same, and herbicides containing same as effective components” (Central Glass Co., Ltd., priority 1994, dated 2002).

`C#CC(C)Oc1cc(N(C(=O)C2=C(C(=O)OCCC)CCCC2)C(=O)c2cccnc2)c(F)cc1Cl` (centres unmarked) [Compound No. 58]: the results for the “Herbicidal Effect hotarui” value in [1] (3.13 g/10a) and in data set [1] (6.25 g/10a) were 4 and 4.5, respectively. The “Herbicidal Effect nobie” value in data set [2] (3.13 g/10a) and in data set [2] (6.25 g/10a) was 5 throughout. Moreover, the “Herbicidal Effect rice” value in data set [3] (40 g/10a) and in data set [3] (80 g/10a) was 1 throughout. Also, the “Herbicidal Effect aobiyu” value in data set [4] (40 g/10a) and in data set [4] (80 g/10a) was 5 each time. Further, the “Herbicidal Effect garden radish” value in data set [5] (40 g/10a) and in [5] (80 g/10a) was 5 throughout. Also, the “Herbicidal Effect cockspur” value in [6] (40 g/10a) and in data set [6] (80 g/10a) was 1 in each case. In addition, the “Herbicidal Effect mehishiba” value in data set [7] (40 g/10a) was 1; in data set [7] (80 g/10a) it was 3. For the same molecule, the “Herbicidal Effect broad-leaved weed” value in [8] (3.13 g/10a) and in data set [8] (6.25 g/10a) was 5 each time. The “Injury of Paddy” value came out at 0 in data set [9] (3.13 g/10a) and 0.5 in data set [9] (6.25 g/10a). The “Herbicidal Effect tamagayatsuri” value in data set [10] (3.13 g/10a) and in data set [10] (6.25 g/10a) was 5 each time.
For `COC(=O)C1=C(C(=O)N(C(=O)c2cccnc2)c2cc(OC(C)C)c(Cl)cc2F)CCCC1` [compound 56], the “Herbicidal Effect hotarui” value in data set [1] (3.13 g/10a) and in data set [1] (6.25 g/10a) was 5 in each case. Further, the “Herbicidal Effect nobie” value in [2] (3.13 g/10a) and in data set [2] (6.25 g/10a) was 5 in each case. Besides, the “Herbicidal Effect rice” value in [3] (40 g/10a) and in data set [3] (80 g/10a) was 1 each time. Besides, the “Herbicidal Effect aobiyu” value in [4] (40 g/10a) and in data set [4] (80 g/10a) was 5 throughout. Further, the “Herbicidal Effect garden radish” value in data set [5] (40 g/10a) and in data set [5] (80 g/10a) was 5 each time. Besides, the “Herbicidal Effect cockspur” value in [6] (40 g/10a) and in data set [6] (80 g/10a) was 1 throughout. The “Herbicidal Effect mehishiba” value in data set [7] (40 g/10a) and in data set [7] (80 g/10a) was 1 in each case. The “Herbicidal Effect broad-leaved weed” value in data set [8] (3.13 g/10a) is listed as 4.5; in data set [8] (6.25 g/10a), 5. In addition, the “Injury of Paddy” value in data set [9] (3.13 g/10a) and in data set [9] (6.25 g/10a) was 0.5 throughout. For the same molecule, the “Herbicidal Effect tamagayatsuri” value in data set [10] (3.13 g/10a) and in [10] (6.25 g/10a) was 5 each time.
In the case of `C#CC(C)Oc1cc(N(C(=O)C2=C(C(=O)OCCCC)CCCC2)C(=O)c2cccnc2)c(F)cc1Cl` (centres unmarked) [compound 59], the “Herbicidal Effect hotarui” value in data set [1] (3.13 g/10a) and in data set [1] (6.25 g/10a) was 4 throughout. Moreover, the “Herbicidal Effect nobie” value in data set [2] (3.13 g/10a) and in data set [2] (6.25 g/10a) was 5 in each case. The “Herbicidal Effect rice” value in [3] (40 g/10a) and in data set [3] (80 g/10a) was 1 each time. Besides, the “Herbicidal Effect aobiyu” value in data set [4] (40 g/10a) and in [4] (80 g/10a) was 5 each time. In addition, the “Herbicidal Effect garden radish” value in [5] (40 g/10a) and in data set [5] (80 g/10a) was 5 each time. In addition, the “Herbicidal Effect cockspur” value in [6] (40 g/10a) stood at 0; in data set [6] (80 g/10a) it was 1. Moreover, the “Herbicidal Effect mehishiba” value in [7] (40 g/10a) and in data set [7] (80 g/10a) was 1 throughout. Besides, the “Herbicidal Effect broad-leaved weed” value in [8] (3.13 g/10a) and in data set [8] (6.25 g/10a) was 5 each time. Further, the “Injury of Paddy” value in data set [9] (3.13 g/10a) and in [9] (6.25 g/10a) was 0.5 in each case. Also, the “Herbicidal Effect tamagayatsuri” value in data set [10] (3.13 g/10a) and in data set [10] (6.25 g/10a) was 5 each time.
Consider `C#CCOC(=O)C1=C(C(=O)N(C(=O)c2cccnc2)c2cc(OC(C)C#C)c(Cl)cc2F)CCCC1` (centres unmarked) [compound 61], for which the “Herbicidal Effect hotarui” value in data set [1] (3.13 g/10a) and in data set [1] (6.25 g/10a) was 4 throughout. Moreover, the “Herbicidal Effect nobie” value in data set [2] (3.13 g/10a) and in [2] (6.25 g/10a) was 5 in each case. Further, the “Herbicidal Effect rice” value in data set [3] (40 g/10a) was 3; in data set [3] (80 g/10a) it was 4. Further, the “Herbicidal Effect aobiyu” value in data set [4] (40 g/10a) and in data set [4] (80 g/10a) was 5 each time. Further, the “Herbicidal Effect garden radish” value in data set [5] (40 g/10a) and in [5] (80 g/10a) was 5 in each case. The “Herbicidal Effect cockspur” value in [6] (40 g/10a) and in data set [6] (80 g/10a) was 2 each time. Moreover, the “Herbicidal Effect mehishiba” value in data set [7] (40 g/10a) stood at 4.5; in data set [7] (80 g/10a), 5. Moreover, the “Herbicidal Effect broad-leaved weed” value in [8] (3.13 g/10a) and in [8] (6.25 g/10a) was 5 in each case. Also, the “Injury of Paddy” value in data set [9] (3.13 g/10a) is reported as 0; in data set [9] (6.25 g/10a), 0.5. Besides, the “Herbicidal Effect tamagayatsuri” value in [10] (3.13 g/10a) and in data set [10] (6.25 g/10a) was 5 in each case.
On to `C#CC(C)Oc1cc(N(C(=O)C2=C(C(=O)OC3CCCC3)CCCC2)C(=O)c2cccnc2)c(F)cc1Cl` (centres unmarked) [compound 62], for which the “Herbicidal Effect hotarui” value in [1] (3.13 g/10a) and in [1] (6.25 g/10a) was 4 in each case. Besides, the “Herbicidal Effect nobie” value in data set [2] (3.13 g/10a) and in data set [2] (6.25 g/10a) was 5 in each case. Besides, the “Herbicidal Effect rice” value in data set [3] (40 g/10a) and in data set [3] (80 g/10a) was 1 in each case. In addition, the “Herbicidal Effect aobiyu” value in data set [4] (40 g/10a) and in data set [4] (80 g/10a) was 5 throughout. In addition, the “Herbicidal Effect garden radish” value amounted to 4.5 in [5] (40 g/10a) and 5 in data set [5] (80 g/10a). Also, the “Herbicidal Effect cockspur” value in data set [6] (40 g/10a) and in data set [6] (80 g/10a) was 1 throughout. Besides, the “Herbicidal Effect mehishiba” value in [7] (40 g/10a) and in data set [7] (80 g/10a) was 1 in each case. The “Herbicidal Effect broad-leaved weed” value in data set [8] (3.13 g/10a) and in data set [8] (6.25 g/10a) was 5 throughout. Moreover, the “Injury of Paddy” value stood at 0 in [9] (3.13 g/10a) and 0.5 in data set [9] (6.25 g/10a). The “Herbicidal Effect tamagayatsuri” value in [10] (3.13 g/10a) and in data set [10] (6.25 g/10a) was 5 throughout.
`COC(=O)CSc1cc(N(C(=O)C2=C(C(=O)OC)CCCC2)C(=O)c2cccnc2)c(F)cc1Cl` [compound 63]: the “Herbicidal Effect hotarui” value in data set [1] (3.13 g/10a) and in [1] (6.25 g/10a) was 4 in each case. Moreover, the “Herbicidal Effect nobie” value in [2] (3.13 g/10a) and in [2] (6.25 g/10a) was 5 throughout. In addition, the “Herbicidal Effect rice” value in [3] (40 g/10a) and in data set [3] (80 g/10a) was 1 in each case. Besides, the “Herbicidal Effect aobiyu” value in data set [4] (40 g/10a) and in data set [4] (80 g/10a) was 5 each time. For the same molecule, the “Herbicidal Effect garden radish” value in [5] (40 g/10a) and in [5] (80 g/10a) was 4.5 throughout. The “Herbicidal Effect cockspur” value in data set [6] (40 g/10a) and in data set [6] (80 g/10a) was 1 throughout. The “Herbicidal Effect mehishiba” value in data set [7] (40 g/10a) and in data set [7] (80 g/10a) was 1 throughout. Further, the “Herbicidal Effect broad-leaved weed” value in data set [8] (3.13 g/10a) and in [8] (6.25 g/10a) was 5 throughout. The “Injury of Paddy” value in data set [9] (3.13 g/10a) and in [9] (6.25 g/10a) was 0 in each case. The “Herbicidal Effect tamagayatsuri” value worked out at 4 in [10] (3.13 g/10a) and 5 in [10] (6.25 g/10a).
Turning to `COCCOC(=O)C1=C(C(=O)N(C(=O)c2cccnc2)c2cc(C(=O)OC)c(Cl)cc2F)CCCC1` [compound 65], the “Herbicidal Effect hotarui” value in [1] (3.13 g/10a) and in data set [1] (6.25 g/10a) was 4 in each case. For the same molecule, the “Herbicidal Effect nobie” value in [2] (3.13 g/10a) and in data set [2] (6.25 g/10a) was 5 throughout. The “Herbicidal Effect rice” value in [3] (40 g/10a) and in [3] (80 g/10a) was 1 throughout. Besides, the “Herbicidal Effect aobiyu” value in data set [4] (40 g/10a) and in data set [4] (80 g/10a) was 5 throughout. In addition, the “Herbicidal Effect garden radish” value in [5] (40 g/10a) and in data set [5] (80 g/10a) was 5 each time. The “Herbicidal Effect cockspur” value in data set [6] (40 g/10a) and in data set [6] (80 g/10a) was 1 in each case. Further, the “Herbicidal Effect mehishiba” value in data set [7] (40 g/10a) and in data set [7] (80 g/10a) was 1 each time. In addition, the “Herbicidal Effect broad-leaved weed” value in [8] (3.13 g/10a) and in data set [8] (6.25 g/10a) was 5 each time. The “Injury of Paddy” value in [9] (3.13 g/10a) and in data set [9] (6.25 g/10a) was 0 each time. In addition, the “Herbicidal Effect tamagayatsuri” value in [10] (3.13 g/10a) and in [10] (6.25 g/10a) was 4 each time.
